The values below come from paper PMC5068727, “Low-dose oxytocin delivered intranasally with Breath Powered device affects social-cognitive behavior: a randomized four-way crossover trial with nasal cavity dimension assessment” (Translational Psychiatry, 2015).

Holding throughout (type): in vivo, human
For data set [1], the system named is healthy male adults. Briefly: Social cognition task: emotional and trustworthiness ratings of facial images. To be noted: 1 IU IV over 20 min, estimated mean (SE), linear mixed model, SEM. Here is the method:
Participants completed the social cognition task 40 min after treatment in a magnetic resonance imaging scanner while functional magnetic resonance imaging and physiology data were recorded (results to be reported separately). Participants were presented with visual stimuli through magnetic resonance imaging-compatible goggles (VisualSystem; NordicNeuroLab, Bergen, Norway) using E-Prime 2.0 (Psychology Software Tools, PA, USA) and responded using a grip response collection system (ResponseGrip, NordicNeuroLab).
For the primary emotional expression evaluation outcome measure, participants were presented with 20 male and 20 female faces (as used previously[55]) displaying angry, happy and emotionally ambiguous facial expressions (derived from the Karolinska Directed Emotional Faces database[56]) and 20 images of geometrical shapes (data not presented). Following each presentation, participants were asked either: How angry is this person? (anchors: not angry—very angry) or How happy is this person? (anchors: not happy—very happy). Q2 was always the same: How much would you trust this person? (anchors: not at all—very much). Participants were asked to rank their answer on a visual analog scale from 1 to 5, with location of the cursor on the visual analog scale randomized for each question. Mean ratings for each of the questions were averaged per session within each of the emotional categories, yielding seven behavioral variables (Q1: Happy face—happy, Happy face—angry, ambiguous face—happy, ambiguous face—angry, angry face—happy, angry face—angry; Q2: Trust). These stimuli and questions were chosen to assess three levels of emotion perception; ambiguous, non-ambiguous with corresponding cues and ratings (for example, angry ratings of angry faces) and non-ambiguous with conflicting cues and ratings (for example, angry ratings of happy faces).
(§1) Analysis was conducted using IBM SPSS Statistics version 22 (IBM, Armonk, NY, USA) to explore pharmacokinetics and examine the impact of treatment on outcome measures. A linear mixed-model (LMM) approach was adopted[58] for the analysis of emotional expression evaluation, pharmacokinetics, state anxiety and trustworthiness. In contrast to a repeated-measures analysis of variance approach, LMM allows for the inclusion of participants in the analysis even if data are missing for some of the treatment conditions. All the models were fitted using an unstructured matrix. For any significant main effects (that is, P<0.05), post hoc tests were performed with the adjustment of critical P-values to correct for multiple comparisons using a 5% false discovery rate.[59] Experimental treatment was both a fixed and repeated effect in the LMM testing the impact of treatment on emotion and trustworthiness ratings. To investigate the impact of treatment on anxiety and blood plasma concentration of OT, AVP and cortisol, an LMM was fitted with three fixed factors (treatment, time, treatment × time) and one repeated factor (treatment).

The subject of data set [2] is healthy male adults. Briefly: Self-reported adverse events. Conditions: 1 IU IV; 16 healthy males, single dose. Here is the method: At various points (−20, 0, 10, 30, 60 and 120 mins relative to start of functional magnetic resonance imaging) throughout testing, participants reported the presence and severity of any adverse effects.
Data set [3] can be described thus: Open label pilot study of peripheral OT pharmacokinetics. To be noted: 5 participants, 1IU IV in 200ml 0.9% NaCl, 600ml/hour over 20 minutes, 30 to 60 minutes post-administration. Here is the method:
An open label pilot study comparing the pharmacokinetics of 24IU OPN-OT and 1IU IV-OT was conducted with 5 eligible participants (4 of these participants participated in the main study) to ensure that 1IU IV-OT would equal or exceed the serum exposure following IN-OT treatment. The IV OT (1IU) was mixed in 200ml 0.9% NaCl and administered at an infusion rate of 600ml/hour over 20 minutes. Blood was sampled just before administration (baseline) and at seven timepoints after completion of administration (10, 20, 30, 45, 60, 90, and 120 minutes). […] There was a one-month washout period, at the minimum, between participation in the pilot study and the experimental phase.

Data set [4] is described as follows: Oxytocin blood plasma concentration (ELISA). Conditions: 1 IU IV over 20 min. The procedure: (§2) Blood samples were collected to assess peripheral levels of OT, AVP and cortisol at baseline and five time points after the completion of the 20-min IV administration (0, 10, 30, 60 and 120 mins) throughout the session. Up to two punctures with catheter placement were made to collect these blood samples, which were centrifuged at 4 °C within 5 min of blood draw with plasma frozen at −80 °C. Enzyme-linked immunosorbent assay using commercial kits (Enzo Life Sciences, Farmingdale, NY, USA) was performed using standard techniques (including sample extraction[57]).
as §1, with “Experimental treatment was both a fixed and repeated effect in the LMM testing the impact of treatment on emotion and trustworthiness ratings. To investigate the impact of treatment on anxiety and blood plasma concentration of OT, AVP and cortisol, an LMM was fitted with three fixed factors (treatment, time, treatment × time) and one repeated factor (treatment).” left out
(In general: In an ELISA, binding on a coated surface is turned into a signal by an enzyme label.)

The next data set deals with cortisol. In words: Cortisol blood plasma concentration (ELISA). Conditions: 1 IU IV, LMM pairwise comparison. The procedure:
as §2, §1

In the case of `CC[C@H](C)[C@@H]1NC(=O)[C@H](Cc2ccc(O)cc2)NC(=O)[C@@H](N)CSSC[C@@H](C(=O)N2CCC[C@H]2C(=O)N[C@@H](CC(C)C)C(=O)NCC(N)=O)NC(=O)[C@H](CC(N)=O)NC(=O)[C@H](CCC(N)=O)NC1=O` [IV OT, oxytocin], the “Angry ratings of ambiguous faces” value in the data set with healthy male adults [1] (single dose, task 40 min after treatment, visual analog scale 1 to 5, 16 healthy males) is 2.32 (0.18). The Trustworthiness in the data set on healthy male adults [1] (collapsed across emotional categories, scale 1 to 5) was 3.16 (0.05). In the data set with healthy male adults [1] (scale 1 to 5), the “Angry ratings of angry faces” value is 3.68 (0.2), the “Angry ratings of happy faces” value was 1.24 (0.02), the “Happy ratings of ambiguous faces” value is 2.38 (0.14) and the “Happy ratings of happy faces” value was 4.31 (0.13). For the same molecule, the “Adverse events (for example, brief dizziness)” value with healthy male adults [2] is on record as “three”. Also, in data set [3], the “Peripheral (serum) OT levels relative to 24IU OPN-OT” value is listed as “reasonably approximated the levels achieved after 24IU OPN-OT administration”. The “Plasma OT concentration compared with placebo” value in data set [4] (baseline and 0, 10, 30, 60, 120 min, ELISA with extraction, LMM pairwise comparison, P<0.001) is on record as “significantly increased”. In addition, the “Plasma OT concentration, simple effect for time” value in data set [4] (shortly after IV administration compared with all other time points, all P<0.001) is on record as “significantly higher concentrations shortly after IV administration”. The “Cortisol blood plasma concentration compared with 8 IU OPN-OT” value in the data set on cortisol is “but not 8 IU OPN-OT”. The “Cortisol blood plasma concentration compared with 24 IU OPN-OT” value with cortisol (P<0.001) is “significantly increased”. Further, in the data set with cortisol (P=0.01), the “Cortisol blood plasma concentration compared with placebo” value was “significantly increased”.
